The text below walks through data of US8017612B2, “Piperazine compound and use thereof as a HCV polymerase inhibitor” (priority 2006, dated 2011).

The target in assay [1] is T1, HCV polymerase (NS5B) type 1b (Hepatitis C virus genotype 1b, UniProt P26663).
T1 construct: a region encoding NS5B (J Virol 1991 March, 65(3), 1105-13, 544 amino acids after deletion of 47 amino acids on the C-terminal); 6xHis (C); made in house; host or cells: Escherichia coli
Description: Assay of enzyme (HCV polymerase) inhibitory activity, type 1b enzyme. It counts as biochemical, HCV BK strain (type 1b). The following applies: HCV polymerase inhibitory activity (IC50), 1b, type 1b enzyme 0.5 μg/ml, 25° C., 60 min. From the text:
(§1) The evaluation of the HCV polymerase inhibitory activity of the compound of the present invention is explained in the following. This polymerase is an enzyme coded for by the non-structural protein region called NS5B on the genome RNA of HCV.
(§2) i) Preparation of Enzyme (HCV Polymerase)
(§3) Using, as a template, a cDNA clone corresponding to the full length genome RNA of HCV BK strain (type 1b) obtained from the blood of a patient with hepatitis C, a region encoding NS5B (J Virol 1991 March, 65(3), 1105-13, 544 amino acids after deletion of 47 amino acids on the C-terminal) was amplified by PCR. The objective gene was prepared by adding a 6 His tag {base pair encoding 6 continuous histidine (His)} to the 3′ end thereof and transformed to Escherichia coli. The Escherichia coli capable of producing the objective protein was cultured. The obtained cells were suspended in a buffer solution and crushed in a microfluidizer. The supernatant was obtained by centrifugation and applied to various column chromatographys {mono-S, Sephacryl S-200 (Pharmacia)}, inclusive of metal chelate chromatography, to give a standard enzyme product.
(§4) ii) Synthesis of Substrate RNA
(§5) Using a synthetic primer designed based on the sequence of HCV genomic 3′ untranslated region, a DNA fragment (148 bp) containing polyU and 3′X sequence was entirely synthesized and cloned into plasmid pBluescript SK II(+) (Stratagene). The cDNA encoding full length NS5B, which was prepared in i) above, was digested with restriction enzyme KpnI to give a cDNA fragment containing the nucleotide sequence of from the restriction enzyme cleavage site to the termination codon. This cDNA fragment was inserted into the upstream of 3′ untranslated region of the DNA in pBluescript SK II(+) and ligated. The about 450 bp inserted DNA sequence was used as a template in the preparation of substrate RNA. This plasmid was cleaved immediately after the 3′X sequence, linearized and purified by phenol-chloroform treatment and ethanol precipitation to give DNA.
(§6) RNA was synthesized (37° C., 4 hr) by run-off method using this purified DNA as a template, a promoter of pBluescript SK II(+), MEGAscript RNA synthesis kit (Ambion) and T7 RNA polymerase. DNase I was added and the mixture was incubated for 1 hr. The template DNA was removed by decomposition to give a crude RNA product. This crude product was treated with phenol-chloroform and purified by ethanol precipitation to give the objective substrate RNA.
(§7) This RNA was applied to urea denaturation polyacrylamide gel electrophoresis to confirm the quality thereof and preserved at −80° C.
(§8) iii) Assay of Enzyme (HCV Polymerase) inhibitory activity
(§9) A test substance (compound of the present invention) and a reaction mixture (30 μl) having the following composition were reacted at 25° C. for 60 min.
(§10) 10% Trichloroacetic acid and 1% sodium pyrophosphate solution (150 μl) at 4° C. was added to this reaction mixture to stop the reaction. The reaction mixture was left standing at 4° C. for 15 min to insolubilize RNA. This RNA was trapped on a glass filter (PerkinElmer, GF/B) upon filtration by suction. This filter was washed with a solution containing 1% trichloroacetic acid and 0.1% sodium pyrophosphate, washed with 90% ethanol and dried. A liquid scintillation cocktail (PerkinElmer) was added and the radioactivity of RNA synthesized by the enzyme reaction was measured on a liquid scintillation counter.
The HCV polymerase inhibitory activity (IC50) of the compound of the present invention was calculated from the values of radioactivity of the enzyme reaction with and without the test substance.
Reaction mixture: HCV polymerase (type 1b 0.5 μg/ml or type 1a 1.5 μg/m) obtained in i), substrate RNA (5 μg/ml) obtained in ii), ATP (50 μM), GTP (50 μM), CTP (50 μM), UTP (2 μM), [5,6-^3H]UTP (30-60 Ci/mmol (Amersham Biosciences), 1 μCi) 20 mM Tris-HCl (pH 7.5), EDTA (1 mM), MgCl2 (5 mM), NaCl (50 mM), DTT (1 mM), BSA (0.01%)

In assay [2] the target is T2, HCV polymerase (NS5B) type 1a (Hepatitis C virus genotype 1a, UniProt P26664).
T2 construct: made in house; host or cells: Escherichia coli (by the 'similar method' of the 1b enzyme)
Description: Assay of enzyme (HCV polymerase) inhibitory activity, type 1a enzyme. It counts as biochemical, HCV type 1a (cloned from the blood of patients). The following applies: HCV polymerase inhibitory activity (IC50), 1a, type 1a enzyme 1.5 μg/ml, 25° C., 60 min.
Description: as §1, §2, §3
Standard enzyme products for type 1a (cloned from the blood of patients) were also obtained by a similar method.
as §4, §5, §6, §7, §8, §9, §10
The HCV polymerase inhibitory activity (IC50) of the compound of the present invention was calculated from the values of radioactivity of the enzyme reaction with and without the test substance. […]

On to `CC(=O)N1CCN(S(=O)(=O)c2ccc(C(C)C)cc2)C(C(=O)NCc2ccc(N(C)C)cc2)C1` (centres unmarked) [Example 37, 4-acetyl-1-(4-isopropyl-benzenesulfonyl)-piperazine-2-carboxylic acid 4-dimethylamino-benzylamide], for which the IC50 in assay [1] and in assay [2] was 100 to 1000 nM throughout.
As to `CC(=O)N1CCN(S(=O)(=O)c2ccc(C(C)C)cc2)C(C(=O)NCc2ccc(S(N)(=O)=O)cc2)C1` (centres unmarked) [Example 38, 4-acetyl-1-(4-isopropyl-benzenesulfonyl)-piperazine-2-carboxylic acid 4-sulfamoyl-benzylamide], the IC50 in assay [1] and in assay [2] was greater than 1000 nM each time.
In the case of `CC(=O)Nc1ccc(S(=O)(=O)N2CCN(C(C)=O)CC2C(=O)NCc2ccc(C(F)(F)F)cc2)cc1` (centres unmarked) [Example 39, 4-acetyl-1-(4-acetylamino-benzenesulfonyl)-piperazine-2-carboxylic acid 4-trifluoromethyl-benzylamide], the IC50 in assay [1] and in assay [2] was greater than 1000 nM in each case.
Turning to `CC(=O)N1CCN(S(=O)(=O)c2ccc([N+](=O)[O-])cc2)C(C(=O)NCc2ccc(C(F)(F)F)cc2)C1` (centres unmarked) [Example 40, 4-acetyl-1-(4-nitro-benzenesulfonyl)-piperazine-2-carboxylic acid 4-trifluoromethyl-benzylamide], the half-maximal inhibitory concentration (IC50) in assay [1] and in assay [2] was greater than 1000 nM in each case.
Regarding `CC(=O)N1CCN(S(=O)(=O)c2ccc(Cl)c(Cl)c2)C(C(=O)NCc2ccc(C(F)(F)F)cc2)C1` (centres unmarked) [Example 41, 4-acetyl-1-(3,4-dichloro-benzenesulfonyl)-piperazine-2-carboxylic acid 4-trifluoromethyl-benzylamide], the 50% inhibitory concentration (IC50) in assay [1] and in assay [2] was greater than 1000 nM each time.
Regarding `CC(=O)N1CCN(S(=O)(=O)c2cccc(-c3ccccc3)c2)C(C(=O)NCc2ccc(C(F)(F)F)cc2)C1` (centres unmarked) [Example 42, 4-acetyl-1-(biphenyl-3-sulfonyl)-piperazine-2-carboxylic acid 4-trifluoromethyl-benzylamide], the half-maximal inhibitory concentration (IC50) in assay [1] and in assay [2] was greater than 1000 nM each time.
Consider `CC(=O)N1CCN(S(=O)(=O)c2ccc(-c3cc(C(F)(F)F)on3)s2)C(C(=O)NCc2ccc(C(F)(F)F)cc2)C1` (centres unmarked) [Example 43, 4-acetyl-1-[5-(5-trifluoromethyl-isoxazol-3-yl)-thiophene-2-sulfonyl]-piperazine-2-carboxylic acid 4-trifluoromethyl-benzylamide], for which the IC50 in assay [1] and in assay [2] was greater than 1000 nM each time.
With `COc1ccc(S(=O)(=O)N2CCN(C(C)=O)CC2C(=O)NCc2ccc(C(F)(F)F)cc2)cc1` (centres unmarked) [Example 44, 4-acetyl-1-(4-methoxy-benzenesulfonyl)-piperazine-2-carboxylic acid 4-trifluoromethyl-benzylamide], the IC50 in assay [1] and in assay [2] was greater than 1000 nM each time.
For the compound `CC(=O)N1CCN(S(=O)(=O)c2ccc(C(F)(F)F)cc2)C(C(=O)NCc2ccc(C(F)(F)F)cc2)C1` (centres unmarked) [Example 45, 4-acetyl-1-(4-trifluoromethyl-benzenesulfonyl)-piperazine-2-carboxylic acid 4-trifluoromethyl-benzylamide], the IC50 in assay [1] and in assay [2] was greater than 1000 nM each time.
Turning to `CC(=O)N1CCN(S(=O)(=O)c2ccc(C#N)cc2)C(C(=O)NCc2ccc(C(F)(F)F)cc2)C1` (centres unmarked) [Example 46, 4-acetyl-1-(4-cyano-benzenesulfonyl)-piperazine-2-carboxylic acid 4-trifluoromethyl-benzylamide], the IC50 in assay [1] and in assay [2] was greater than 1000 nM each time.
Regarding `CC(=O)N1CCN(S(=O)(=O)c2ccc(S(=O)(=O)c3ccccc3)s2)C(C(=O)NCc2ccc(C(F)(F)F)cc2)C1` (centres unmarked) [Example 47, 4-acetyl-1-(5-benzenesulfonyl-thiophene-2-sulfonyl)-piperazine-2-carboxylic acid 4-trifluoromethyl-benzylamide], the 50% inhibitory concentration (IC50) in assay [1] and in assay [2] was greater than 1000 nM throughout.
As for `CC(=O)N1CCN(S(=O)(=O)c2ccc3c(c2)CCO3)C(C(=O)NCc2ccc(C(F)(F)F)cc2)C1` (centres unmarked) [Example 48, 4-acetyl-1-(2,3-dihydro-benzofuran-5-sulfonyl)-piperazine-2-carboxylic acid 4-trifluoromethyl-benzylamide], the half-maximal inhibitory concentration (IC50) in assay [1] and in assay [2] was greater than 1000 nM throughout.
For the compound `CC(=O)N1CCN(S(=O)(=O)c2ccc(C(C)C)cc2)C(C(=O)NCc2ccccc2)C1` (centres unmarked) [Example 49, 4-acetyl-1-(4-isopropyl-benzenesulfonyl)-piperazine-2-carboxylic acid benzylamide], the IC50 in assay [1] and in assay [2] was greater than 1000 nM in each case.
With `COc1ccccc1CNC(=O)C1CN(C(C)=O)CCN1S(=O)(=O)c1ccc(C(C)C)cc1` (centres unmarked) [Example 50, 4-acetyl-1-(4-isopropyl-benzenesulfonyl)-piperazine-2-carboxylic acid 2-methoxy-benzylamide], the IC50 in assay [1] and in assay [2] was greater than 1000 nM throughout.
For `COc1cccc(CNC(=O)C2CN(C(C)=O)CCN2S(=O)(=O)c2ccc(C(C)C)cc2)c1` (centres unmarked) [Example 51, 4-acetyl-1-(4-isopropyl-benzenesulfonyl)-piperazine-2-carboxylic acid 3-methoxy-benzylamide], the IC50 in assay [1] and in assay [2] was greater than 1000 nM throughout.
For the compound `COc1ccc(CNC(=O)C2CN(C(C)=O)CCN2S(=O)(=O)c2ccc(C(C)C)cc2)cc1` (centres unmarked) [Example 52, 4-acetyl-1-(4-isopropyl-benzenesulfonyl)-piperazine-2-carboxylic acid 4-methoxy-benzylamide], the half-maximal inhibitory concentration (IC50) in assay [1] and in assay [2] was greater than 1000 nM throughout.
For `CC(=O)N1CCN(S(=O)(=O)c2ccc(C(C)C)cc2)C(C(=O)NCc2ccc(OC(F)(F)F)cc2)C1` (centres unmarked) [Example 53, 4-acetyl-1-(4-isopropyl-benzenesulfonyl)-piperazine-2-carboxylic acid 4-trifluoromethoxy-benzylamide], the half-inhibitory concentration (IC50) in assay [1] and in assay [2] was 100 to 1000 nM in each case.
Turning to `CC(=O)N1CCN(S(=O)(=O)c2ccc(C(C)C)cc2)C(C(=O)NCc2ccc(Br)cc2)C1` (centres unmarked) [Example 54, 4-acetyl-1-(4-isopropyl-benzenesulfonyl)-piperazine-2-carboxylic acid 4-bromo-benzylamide], the half-inhibitory concentration (IC50) in assay [1] and in assay [2] was greater than 1000 nM each time.
As for `CC(C)c1ccc(S(=O)(=O)N2CCN(C(=O)CO)CC2C(=O)NCc2ccc(C(F)(F)F)cc2)cc1` (centres unmarked) [Example 55, 4-(2-hydroxy-acetyl)-1-(4-isopropyl-benzenesulfonyl)-piperazine-2-carboxylic acid 4-trifluoromethyl-benzylamide], the IC50 in assay [1] and in assay [2] was greater than 1000 nM throughout.
